This passage reports Activity and IC50 results from ChEMBL document CHEMBL4699509, “Asaroidoxazines from the Roots of Asarum asaroides Induce Apoptosis in Human Neuroblastoma Cells” (J Nat Prod, 2020).

Assay [1] relates to SH-SY5Y. As to the kind of experiment: Induction of apoptosis in human SH-SY5Y cells assessed as decrease in ATP level at 1 uM by CellTiter-Glo assay relative to control. Type of assay: functional. Also on record: scale not given: the % may be the effect or the level left.
The test system of assay [2] is SH-SY5Y. As to the kind of experiment: Induction of apoptosis in human SH-SY5Y cells assessed as increase in caspace-3/7 expression at 1 to 30 uM after 12 hrs by Caspase-Glo assay. Type of assay: functional, cell-based. The conditions noted are these: dose microM 1-30, time 12.0 hrs.
The test system of assay [3] is SH-SY5Y. Briefly: Induction of apoptosis in human SH-SY5Y cells assessed as decrease in ATP level at 30 uM by CellTiter-Glo assay relative to control. The format is functional. Further details: scale not given: the % may be the effect or the level left.
The test system of assay [4] is SH-SY5Y. As to the kind of experiment: Induction of apoptosis in human SH-SY5Y cells assessed as nuclear condensation at 1 to 30 uM by Hoechst 33342 staining based inverted fluorescent microscopic method. Type of assay: functional, cell-based. Particulars: dose microM 1-30.
Assay [5] relates to SH-SY5Y. As to the kind of experiment: Induction of apoptosis in human SH-SY5Y cells assessed as nuclear condensation at 30 uM by Hoechst 33342 staining based inverted fluorescent microscopic method (reference value: 2.1%). Type of assay: functional.
The subject of assay [6] is SH-SY5Y. As to the kind of experiment: Cytotoxicity against human SH-SY5Y cells assessed as reduction in cell viability by CCK8 assay. The format is functional, cell-based. (Formazan colour is commonly taken as a measure of viable cells.)
Assay [7] deals with SH-SY5Y. As to the kind of experiment: Induction of apoptosis in human SH-SY5Y cells assessed as nuclear condensation at 1 uM by Hoechst 33342 staining based inverted fluorescent microscopic method (reference value: 2.1%). The format is functional.
Assay [8] deals with SH-SY5Y. As to the kind of experiment: Induction of apoptosis in human SH-SY5Y cells assessed as nuclear fragmentation at 1 to 30 uM by Hoechst 33342 staining based inverted fluorescent microscopic method. Type of assay: functional, cell-based. The conditions noted are these: dose microM 1-30.

Structures are written as SMILES. pIC50: −log10 of the molar value. The source made the active and inactive calls. The rule behind the calls is not given here.

The term pIC50 denotes the negative decadic logarithm of the IC50, by convention in mol/L. As to `COc1ccc(OC)c2c1-c1c3c(cc4c(=O)onc(c14)[C@H]2SCC(N)=O)OCO3`, the Activity was 57.8% with SH-SY5Y [1]; 51.4% in the assay with SH-SY5Y [3]; 70.9% in the assay with SH-SY5Y [5]; “Dose-dependent effect” in the assay with SH-SY5Y [6]; 36.8% in the assay with SH-SY5Y [7]. In addition, the outcome in the assay on SH-SY5Y [2], with SH-SY5Y [4] and with SH-SY5Y [8] was Active. Besides, the pIC50 with SH-SY5Y [6] was 5.57.

`COc1ccc(OC)c2c1cc1c3c(cc4c(c32)OCO4)C(=O)N1`: in the assay with SH-SY5Y [6], the Activity entry is “Dose-dependent effect” and the pIC50 was 4.67.

On to `COc1cc(OC)c2c(c1)-c1c3c(cc4c(=O)onc(c14)[C@H]2SCC(N)=O)OCO3`, for which, in the assay with SH-SY5Y [6], the Activity entry was “Dose-dependent effect” and the negative-log IC50 (pIC50) was 4.95.
